Source: patent US20250129430A1, “HIGH ATP-AFFINITY PROTEIN AS THERAPEUTIC TARGET FOR INTRACTABLE CANCER MOLECULAR SUBTYPES AND INHIBITOR THEREOF” (VeraVerse Co., Ltd., priority 2021, published 2025)

Assays:
Assay in all cases: Cell viability drug screen, 12-point dose-response AUC
Assay type in all cases: cell-based, human
[1] = tested on: FU97; design: Average Area Under the Viability Curve (AUC), AUC norm value: scale not given here; conditions: FU97 cells, 72 hours
Summary of the method: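 Trapezoidal AUC of a 12-point, DMSO-normalized dose-response curve. Luminescent viability was measured after 72 h of exposure at 37° C to half-log serial dilutions (0.5% DMSO control), dosed 24 h after plating FU97 cells at 5×10^3 per well.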

[2] = tested on: YCC2; conditions: YCC2 cells, 72 hours
Summary of the method: (§1)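 Dose-response AUC reflects 72 h drug exposure of gastric cancer cells in a 12-point, half-log format, with viability read by luminescence and normalized to DMSO (0.5%).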

[3] = tested on: SNU1; conditions: SNU1 cells, 72 hours
Summary of the method: as §1

[4] = tested on: MKN74; conditions: MKN74 cells, 72 hours
Summary of the method: (§2)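 AUC comes from 12-point half-log dose–response curves, normalized to DMSO-treated cells and integrated trapezoidally, repeats averaged. Luminescent viability read after 72 h compound exposure at 37 °C; cells plated 5×10^3 per well 24 h before dosing.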

[5] = tested on: YCC11; conditions: 72 hours; for Average Area Under the Viability Curve (AUC), AUC norm value: YCC11 cells (SEM subtype)
Summary of the method: as §1

[6] = tested on: Hs746T; conditions: 72 hours; for Average Area Under the Viability Curve (AUC), AUC norm value: Hs746T cells (SEM subtype)
Summary of the method: as §1

[7] = tested on: SNU484; conditions: 72 hours; for Average Area Under the Viability Curve (AUC), AUC norm value: SNU484 cells (SEM subtype)
Summary of the method: as §1

[8] = tested on: NCI_N87; conditions: NCI_N87 cells, 72 hours
Summary of the method: as §1

[9] = tested on: SNU620; conditions: SNU620 cells, 72 hours
Summary of the method: as §1

[10] = tested on: YCC3; conditions: YCC3 cells, 72 hours
Summary of the method: as §1

[11] = tested on: SNU719; conditions: SNU719 cells, 72 hours
Summary of the method: as §2

[12] = tested on: NCC24; conditions: NCC24 cells, 72 hours
Summary of the method: as §1

[13] = tested on: NCC20; conditions: NCC20 cells, 72 hours
Summary of the method: as §1

[14] = tested on: KATO3; conditions: KATO3 cells, 72 hours
Summary of the method: as §1

[15] = tested on: OCUM1; conditions: OCUM1 cells, 72 hours
Summary of the method: as §1

[16] = tested on: NCC59; conditions: NCC59 cells, 72 hours
Summary of the method: as §1

[17] = tested on: SNU1750; conditions: 72 hours; for Average Area Under the Viability Curve (AUC), AUC norm value: SNU1750 cells (SEM subtype)
Summary of the method: as §1

[18] = tested on: SNU216; conditions: 72 hours; for Average Area Under the Viability Curve (AUC), AUC norm value: SNU216 cells (non-SEM subtype)
Summary of the method: as §2

[19] = tested on: MKN45; conditions: 72 hours; for Average Area Under the Viability Curve (AUC), AUC norm value: MKN45 cells (non-SEM subtype)
Summary of the method: as §2

[20] = tested on: SK4; conditions: 72 hours; for Average Area Under the Viability Curve (AUC), AUC norm value: SK4 cells (SEM subtype)
Summary of the method: as §1

[21] = tested on: MKN28; conditions: MKN28 cells, 72 hours
Summary of the method: as §1

[22] = tested on: AGS; conditions: 72 hours; for Average Area Under the Viability Curve (AUC), AUC norm value: AGS cells (non-SEM subtype)
Summary of the method: as §2

[23] = tested on: SNU1967; conditions: SNU1967 cells, 72 hours
Summary of the method: as §1

[24] = tested on: MKN1; conditions: MKN1 cells, 72 hours
Summary of the method: as §1

[25] = tested on: SNU638; conditions: SNU638 cells, 72 hours
Summary of the method: as §1

[26] = tested on: NCC19; conditions: NCC19 cells, 72 hours
Summary of the method: as §1

[27] = tested on: SNU16; conditions: SNU16 cells, 72 hours
Summary of the method: as §1

[28] = tested on: SNU601; conditions: SNU601 cells, 72 hours
Summary of the method: as §1

[29] = tested on: SNU668; conditions: 72 hours; for Average Area Under the Viability Curve (AUC), AUC norm value: SNU668 cells (SEM subtype)
Summary of the method: as §1

CC[C@@H]1C(=O)N(C)c2cnc(Nc3ccc(C(=O)NC4CCN(C)CC4)cc3OC)nc2N1C1CCCC1 [BI 2536]
Average Area Under the Viability Curve (AUC), AUC norm value [1]: −0.4841 | Average Area Under the Viability Curve (AUC), AUC norm value [2]: −0.1875 | Average Area Under the Viability Curve (AUC), AUC norm value [3]: −1.064 | Average Area Under the Viability Curve (AUC), AUC norm value [4]: −0.6584 | Average Area Under the Viability Curve (AUC), AUC norm value [5]: −0.3817 | Average Area Under the Viability Curve (AUC), AUC norm value [6]: 1.951 | Average Area Under the Viability Curve (AUC), AUC norm value [7]: 0 | Average Area Under the Viability Curve (AUC), AUC norm value [8]: −1.006 | Average Area Under the Viability Curve (AUC), AUC norm value [9]: −1.078 | Average Area Under the Viability Curve (AUC), AUC norm value [10]: 3.315 | Average Area Under the Viability Curve (AUC), AUC norm value [11]: 3.291 | Average Area Under the Viability Curve (AUC), AUC norm value [12]: −0.8832 | Average Area Under the Viability Curve (AUC), AUC norm value [13]: 0.5722 | Average Area Under the Viability Curve (AUC), AUC norm value [14]: 4.704 | Average Area Under the Viability Curve (AUC), AUC norm value [15]: 2.226 | Average Area Under the Viability Curve (AUC), AUC norm value [16]: 3.556 | Average Area Under the Viability Curve (AUC), AUC norm value [17]: −0.8076 | Average Area Under the Viability Curve (AUC), AUC norm value [18]: 2.038 | Average Area Under the Viability Curve (AUC), AUC norm value [19]: 0.09661 | Average Area Under the Viability Curve (AUC), AUC norm value [20]: −1.128 | Average Area Under the Viability Curve (AUC), AUC norm value [21]: −1.69 | Average Area Under the Viability Curve (AUC), AUC norm value [22]: −1.22 | Average Area Under the Viability Curve (AUC), AUC norm value [23]: 0.0237 | Average Area Under the Viability Curve (AUC), AUC norm value [24]: −0.2123 | Average Area Under the Viability Curve (AUC), AUC norm value [25]: 0.1863 | Average Area Under the Viability Curve (AUC), AUC norm value [26]: 3.475 | Average Area Under the Viability Curve (AUC), AUC norm value [27]: 0.02031 | Average Area Under the Viability Curve (AUC), AUC norm value [28]: 0.0215 | Average Area Under the Viability Curve (AUC), AUC norm value [29]: −0.4211

O=C(/C=C/c1cccc(S(=O)(=O)Nc2ccccc2)c1)NO [Belinostat (PXD101), Belinostat]
Average Area Under the Viability Curve (AUC), AUC norm value [1]: −0.9726 | Average Area Under the Viability Curve (AUC), AUC norm value [2]: 0.1706 | Average Area Under the Viability Curve (AUC), AUC norm value [3]: 0.1147 | Average Area Under the Viability Curve (AUC), AUC norm value [4]: −0.1835 | Average Area Under the Viability Curve (AUC), AUC norm value [5]: −0.5556 | Average Area Under the Viability Curve (AUC), AUC norm value [6]: 0.5598 | Average Area Under the Viability Curve (AUC), AUC norm value [7]: 0.9966 | Average Area Under the Viability Curve (AUC), AUC norm value [8]: 0.02343 | Average Area Under the Viability Curve (AUC), AUC norm value [9]: −1.0681 | Average Area Under the Viability Curve (AUC), AUC norm value [10]: 1.065 | Average Area Under the Viability Curve (AUC), AUC norm value [11]: 2.329 | Average Area Under the Viability Curve (AUC), AUC norm value [12]: −1.095 | Average Area Under the Viability Curve (AUC), AUC norm value [13]: 0 | Average Area Under the Viability Curve (AUC), AUC norm value [14]: 0.7544 | Average Area Under the Viability Curve (AUC), AUC norm value [15]: −0.225 | Average Area Under the Viability Curve (AUC), AUC norm value [16]: 2.683 | Average Area Under the Viability Curve (AUC), AUC norm value [17]: −0.902 | Average Area Under the Viability Curve (AUC), AUC norm value [18]: −0.2541 | Average Area Under the Viability Curve (AUC), AUC norm value [19]: 2.493 | Average Area Under the Viability Curve (AUC), AUC norm value [20]: −0.3048 | Average Area Under the Viability Curve (AUC), AUC norm value [21]: −0.3952 | Average Area Under the Viability Curve (AUC), AUC norm value [22]: −0.9372 | Average Area Under the Viability Curve (AUC), AUC norm value [23]: −0.3122 | Average Area Under the Viability Curve (AUC), AUC norm value [24]: 0.9981 | Average Area Under the Viability Curve (AUC), AUC norm value [25]: −0.5011 | Average Area Under the Viability Curve (AUC), AUC norm value [26]: 1.206 | Average Area Under the Viability Curve (AUC), AUC norm value [27]: −1.577 | Average Area Under the Viability Curve (AUC), AUC norm value [28]: 1.495 | Average Area Under the Viability Curve (AUC), AUC norm value [29]: 0.6908

CC(C)C[C@H](NC(=O)[C@H](Cc1ccccc1)NC(=O)c1cnccn1)B(O)O [Bortezomib (Velcade), Bortezomib]
area under the viability curve (AUC), normalized ([1]; 12-point dose-response): 0.01494 | area under the viability curve (AUC), normalized ([2]; 12-point dose-response): 0.6953 | area under the viability curve (AUC), normalized ([3]; 12-point dose-response): −0.3028 | area under the viability curve (AUC), normalized ([4]; 12-point dose-response): 0 | area under the viability curve (AUC), normalized ([5]; YCC11 cells, 12-point dose-response): −0.6649 | area under the viability curve (AUC), normalized ([6]; Hs746T cells, 12-point dose-response): −0.9394 | area under the viability curve (AUC), normalized ([7]; SNU484 cells, 12-point dose-response): −0.6338 | area under the viability curve (AUC), normalized ([8]; 12-point dose-response): 1.569 | area under the viability curve (AUC), normalized ([9]; 12-point dose-response): −0.6115 | area under the viability curve (AUC), normalized ([10]; 12-point dose-response): 2.791 | area under the viability curve (AUC), normalized ([11]; 12-point dose-response): 1.081 | area under the viability curve (AUC), normalized ([12]; 12-point dose-response): −0.3911 | area under the viability curve (AUC), normalized ([13]; 12-point dose-response): −0.1078 | area under the viability curve (AUC), normalized ([14]; 12-point dose-response): 1.082 | area under the viability curve (AUC), normalized ([15]; 12-point dose-response): 2.346 | area under the viability curve (AUC), normalized ([16]; 12-point dose-response): 0.8821 | area under the viability curve (AUC), normalized ([17]; SNU1750 cells, 12-point dose-response): −1.326 | area under the viability curve (AUC), normalized ([18]; SNU216 cells, 12-point dose-response): 0.4223 | area under the viability curve (AUC), normalized ([19]; MKN45 cells, 12-point dose-response): 0.1641 | area under the viability curve (AUC), normalized ([20]; SK4 cells, 12-point dose-response): 0.3944 | area under the viability curve (AUC), normalized ([21]; 12-point dose-response): −0.416 | area under the viability curve (AUC), normalized ([22]; AGS cells, 12-point dose-response): −0.1894 | area under the viability curve (AUC), normalized ([23]; 12-point dose-response): −0.8453 | area under the viability curve (AUC), normalized ([24]; 12-point dose-response): 0.3149 | area under the viability curve (AUC), normalized ([25]; 12-point dose-response): 0.06564 | area under the viability curve (AUC), normalized ([26]; 12-point dose-response): −0.6969 | area under the viability curve (AUC), normalized ([27]; 12-point dose-response): −0.0987 | area under the viability curve (AUC), normalized ([28]; 12-point dose-response): −0.07383 | area under the viability curve (AUC), normalized ([29]; SNU668 cells, 12-point dose-response): 1.358
